Values of other authors, collected in patent publication WO2011103442A2, “Synthesis of the potent immunosuppressant agents dalesconol a and b” (Columbia University in the City of New York, priority 2010, dated 2011).
≈ marks a conversion by molar mass, not a printed value.

Assays:
[1] = for IC50, immunosuppressive activity: as repeated in the Discussion
[2] = molecular target: acetylcholinesterase (Homo sapiens, UniProt P22303)
[3] = system: ConA-induced proliferation of mouse spleen cells; conditions: in vitro
[4] = compared with cyclosporin A

Sequence of acetylcholinesterase (P22303 32-614): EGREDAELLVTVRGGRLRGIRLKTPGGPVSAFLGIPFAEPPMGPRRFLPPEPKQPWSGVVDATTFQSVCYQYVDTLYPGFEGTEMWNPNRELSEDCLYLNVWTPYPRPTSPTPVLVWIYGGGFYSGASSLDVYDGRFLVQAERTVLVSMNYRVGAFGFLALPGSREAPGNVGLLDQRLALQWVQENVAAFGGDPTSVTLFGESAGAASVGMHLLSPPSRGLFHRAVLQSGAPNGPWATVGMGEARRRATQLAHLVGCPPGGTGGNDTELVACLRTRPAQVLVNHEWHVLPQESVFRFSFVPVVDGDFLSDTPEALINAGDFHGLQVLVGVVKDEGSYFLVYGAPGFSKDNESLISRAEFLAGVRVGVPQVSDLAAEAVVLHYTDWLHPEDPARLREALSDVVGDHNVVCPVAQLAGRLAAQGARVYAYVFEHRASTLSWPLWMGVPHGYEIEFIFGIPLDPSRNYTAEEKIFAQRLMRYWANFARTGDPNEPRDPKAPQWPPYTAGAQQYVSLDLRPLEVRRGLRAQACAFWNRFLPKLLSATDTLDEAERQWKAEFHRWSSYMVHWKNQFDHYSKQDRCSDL

cyclosporin A [reference compound]
IC50, immunosuppressive activity [1]: 6e-05 ng/mL

O=C1CC2CC(=O)c3c(O)cccc3C23C(=C2C=CC(=O)c4c(O)ccc3c42)c2cccc(O)c21 (stereo not drawn) [dalesconol A]
acetylcholinesterase inhibition [2]: potent acetylcholinesterase inhibitor | selectivity factor, activity versus cytotoxic effects [3]: greater than 500 | background cytotoxicity relative to cyclosporin A [4]: significantly reduced background cytotoxicity | IC50, immunosuppressive activity [1]: 0.00016 ng/mL (≈ 0.000346 nM) | immunosuppressive potency of racemic mixture versus separated enantiomers ([1]; racemic mixture): more potent than their separated enantiomers
